We go through eleven compounds from ChEMBL document CHEMBL1201862, “PubChem BioAssay data set” (2004).

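Results reflect a 48-hour exposure of cells in 96-well plates to compound at five concentrations. At the GI50, growth is halved.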 Active and inactive are the calls of the source. Rule as the data show it: active = GI50 up to about 1.1 µM and inactive = higher. A value given as a limit tells only on which side of the number the result lay.

Among the test systems are ACHN; CAKI-1; CCRF-CEM; HCC 2998; HCT-116; HOP-62; IGROV-1; KM12; Malme-3M; OVCAR-3; OVCAR-4; OVCAR-8; RXF 393; SK-MEL-28; U-251; UACC-62; UO-31; MCF7; PC-3.
Experiment in all cases: NCI tumour cell line growth inhibition, 48 h

Regarding `Cn1c(=O)c2/c(n(C)c1=O)=N\C=c1\c(=O)n(C)c(=O)n(C)\c1=N\C=2`, the GI50 with ACHN, with CAKI-1, with CCRF-CEM, in the experiment on HCC 2998, in the experiment with HCT-116 and in the experiment on HOP-62 was > 100 µM (inactive) throughout. Besides, the GI50 in the experiment on IGROV-1, with KM12, in the experiment on Malme-3M, in the experiment on OVCAR-3, in the experiment with OVCAR-4 and in the experiment with OVCAR-8 was > 100 µM (inactive) throughout. Besides, the GI50 in the experiment with RXF 393, in the experiment with SK-MEL-28, in the experiment with U-251, with UACC-62 and with UO-31 was > 100 µM (inactive) throughout.
As for `CN(C)c1ccc(C(=C(c2ccc(N(C)C)cc2)c2ccc(N(C)C)cc2)c2ccc(N(C)C)cc2)cc1`, the GI50 with ACHN was 11.5 µM (inactive); with CAKI-1 it was 12.4 µM (inactive); in the experiment with CCRF-CEM it was 16.6 µM (inactive); in the experiment with HCC 2998, 16 µM (inactive); with HCT-116, 13.4 µM (inactive); with HOP-62 it was 39.5 µM (inactive). In addition, the GI50 with IGROV-1 is 17.3 µM (inactive); with KM12, 18.5 µM (inactive); in the experiment on Malme-3M it was 15 µM (inactive); with OVCAR-3, 0.31 µM (active); in the experiment on OVCAR-4, 20.1 µM (inactive); with OVCAR-8, 19.6 µM (inactive). Further, the GI50 in the experiment on RXF 393 is 11.7 µM (inactive); with SK-MEL-28 it was 14.3 µM (inactive); with U-251, 13.9 µM (inactive); in the experiment with UACC-62, 18.8 µM (inactive); in the experiment on UO-31 it was 17.4 µM (inactive).
`CCOP(=O)(OCC)C(C(=O)OC)C(=O)C(=O)Nc1cccc([N+](=O)[O-])c1` (configuration not stated): the GI50 in the experiment with ACHN, with CAKI-1, with CCRF-CEM, with HCC 2998, in the experiment on HCT-116 and in the experiment on HOP-62 was > 100 µM (inactive) in each case. The GI50 in the experiment with IGROV-1, in the experiment with KM12, in the experiment on Malme-3M, in the experiment on OVCAR-3, with OVCAR-4 and in the experiment on OVCAR-8 was > 100 µM (inactive) each time. Moreover, the GI50 in the experiment with RXF 393, in the experiment with SK-MEL-28, in the experiment on U-251, in the experiment on UACC-62 and in the experiment with UO-31 was > 100 µM (inactive) in each case.
With `Cc1c(Cl)ccc2c1NC(=O)C2(O)CC(=O)c1ccc2ccccc2c1` (configuration not stated), the GI50 is 58.9 µM (inactive) in the experiment with ACHN; 42 µM (inactive) in the experiment on CAKI-1; 29 µM (inactive) with CCRF-CEM; > 100 µM (inactive) in the experiment with HCC 2998; 48.5 µM (inactive) in the experiment on HCT-116; > 100 µM (inactive) with HOP-62. For the same compound, the GI50 with IGROV-1 was 37.5 µM (inactive); in the experiment with KM12 it was 37.2 µM (inactive); in the experiment on Malme-3M, > 100 µM (inactive); in the experiment on OVCAR-3, 33.4 µM (inactive); in the experiment with OVCAR-4 it was 46.9 µM (inactive); in the experiment with OVCAR-8, 55.2 µM (inactive). Further, the GI50 in the experiment with RXF 393 was 16 µM (inactive); with SK-MEL-28, 48.2 µM (inactive); in the experiment with U-251, 71.6 µM (inactive); with UACC-62, 21.5 µM (inactive); in the experiment on UO-31, 22.4 µM (inactive).
Regarding `Nn1c(CCCl)nc2c(Br)cc(Br)cc2c1=O`, the GI50 in the experiment with ACHN is 22.9 µM (inactive); in the experiment on CAKI-1, 30.7 µM (inactive); with CCRF-CEM, 8.2 µM (inactive); with HCC 2998, 40.2 µM (inactive); with HCT-116 it was 25.3 µM (inactive); with HOP-62 it was 26.8 µM (inactive). The GI50 with IGROV-1 was 21 µM (inactive); in the experiment with KM12, 18.7 µM (inactive); in the experiment on Malme-3M, > 69.5 µM (inactive); in the experiment with OVCAR-3 it was 9.62 µM (inactive); with OVCAR-4, 19.1 µM (inactive); in the experiment with OVCAR-8, 41.5 µM (inactive). The GI50 with RXF 393 is 36.1 µM (inactive); in the experiment with SK-MEL-28 it was 37.2 µM (inactive); in the experiment on U-251, 23.1 µM (inactive); with UACC-62, 31.9 µM (inactive); in the experiment on UO-31, 25.1 µM (inactive).
In the case of `C[n+]1c2n(c3nc(N)[nH]c(=O)c31)C1OC(C2)C(O)C1O` (configuration not stated), the GI50 in the experiment with ACHN, with CAKI-1, in the experiment on CCRF-CEM, in the experiment with HCC 2998, in the experiment with HCT-116 and in the experiment on HOP-62 was > 100 µM (inactive) each time. The GI50 in the experiment with IGROV-1, with KM12, in the experiment with Malme-3M, with OVCAR-3, in the experiment with OVCAR-4 and in the experiment with OVCAR-8 was > 100 µM (inactive) throughout. Besides, the GI50 in the experiment on RXF 393, in the experiment on SK-MEL-28, in the experiment with U-251, with UACC-62 and in the experiment with UO-31 was > 100 µM (inactive) throughout.
Turning to `CN/N=C(\C(=O)Nc1ccc([N+](=O)[O-])cc1[N+](=O)[O-])C1NC(=O)NC1=O` (configuration not stated), the GI50 in the experiment on ACHN, in the experiment with CAKI-1, in the experiment on CCRF-CEM, in the experiment with HCC 2998, in the experiment with HCT-116 and with HOP-62 was > 100 µM (inactive) throughout. In addition, the GI50 in the experiment on IGROV-1, in the experiment on KM12, with Malme-3M, in the experiment with OVCAR-3, in the experiment on OVCAR-4 and in the experiment with OVCAR-8 was > 100 µM (inactive) throughout. The GI50 in the experiment with RXF 393 was > 100 µM (inactive); in the experiment with SK-MEL-28 it was > 100 µM (inactive); in the experiment with U-251 it was 27.9 µM (inactive); in the experiment with UACC-62, > 100 µM (inactive); with UO-31, > 100 µM (inactive).
Take `c1ccc(/N=C(/Nc2ccccc2)N2CCCCC2)cc1`: the GI50 in the experiment on ACHN was > 100 µM (inactive); in the experiment with CAKI-1, > 100 µM (inactive); with CCRF-CEM, > 100 µM (inactive); in the experiment on HCT-116, 38.6 µM (inactive); in the experiment on HOP-62 it was > 100 µM (inactive); with IGROV-1, 93.5 µM (inactive). The GI50 with KM12 is 72.1 µM (inactive); in the experiment on MCF7, 68.7 µM (inactive); with Malme-3M, 50.2 µM (inactive); with OVCAR-3, > 100 µM (inactive); in the experiment on OVCAR-4 it was > 100 µM (inactive); in the experiment with OVCAR-8 it was > 100 µM (inactive). The GI50 in the experiment with PC-3 was 80.2 µM (inactive); with SK-MEL-28, 74 µM (inactive); in the experiment on U-251, > 100 µM (inactive); with UACC-62 it was 77.4 µM (inactive); in the experiment with UO-31, 49.3 µM (inactive).
Regarding `C=C1C(=O)OC2CC3(C)C=CC(=O)C(=C)C3CC12` (configuration not stated), the GI50 was 1.72 µM (inactive) with ACHN; 1.36 µM (inactive) with CAKI-1; 0.317 µM (active) in the experiment on CCRF-CEM; 2.6 µM (inactive) in the experiment with HCC 2998; 1.28 µM (inactive) with HCT-116; 14.7 µM (inactive) in the experiment on HOP-62. The GI50 in the experiment with IGROV-1 was 2.28 µM (inactive); in the experiment with KM12, 2.08 µM (inactive); in the experiment on Malme-3M, 1.99 µM (inactive); in the experiment on OVCAR-3 it was 2.32 µM (inactive); in the experiment on OVCAR-4, 2.18 µM (inactive); with OVCAR-8, 1.55 µM (inactive). Besides, the GI50 in the experiment with RXF 393 is 2.03 µM (inactive); with SK-MEL-28 it was 1.77 µM (inactive); in the experiment with U-251 it was 3.79 µM (inactive); with UACC-62, 1.5 µM (inactive); in the experiment with UO-31 it was 1.75 µM (inactive).
`COc1cccc(/C(C=O)=C(\Cl)c2ccc(OC)c(OC)c2)c1`: the GI50 with ACHN was 13.6 µM (inactive); in the experiment with CAKI-1 it was 29.2 µM (inactive); in the experiment on CCRF-CEM, 7.74 µM (inactive); in the experiment on HCC 2998 it was 16.1 µM (inactive); in the experiment with HCT-116, 10.6 µM (inactive); with HOP-62, 12.3 µM (inactive). The GI50 in the experiment on IGROV-1 was 21.1 µM (inactive); in the experiment on KM12, 15.7 µM (inactive); in the experiment with Malme-3M, 15.6 µM (inactive); in the experiment with OVCAR-3, 16.6 µM (inactive); in the experiment with OVCAR-4, 16 µM (inactive); in the experiment with OVCAR-8 it was 13.8 µM (inactive). Besides, the GI50 with RXF 393 was 12.3 µM (inactive); in the experiment with SK-MEL-28, 15.1 µM (inactive); with U-251, 13.9 µM (inactive); in the experiment with UACC-62, 4.63 µM (inactive); in the experiment on UO-31, 14.5 µM (inactive).
Take `COC(=O)C1=Cc2c(cc(OC)c(OC)c2OC)[C@H](c2ccc(OC)c(OC)c2OC)C1C(=O)OC` (some centres not stated): the GI50 is > 100 µM (inactive) in the experiment on ACHN; > 100 µM (inactive) in the experiment with CAKI-1; > 100 µM (inactive) in the experiment with CCRF-CEM; > 100 µM (inactive) in the experiment with HCC 2998; 92.3 µM (inactive) in the experiment on HCT-116; > 100 µM (inactive) in the experiment with HOP-62. The GI50 in the experiment with IGROV-1, in the experiment with KM12, in the experiment on Malme-3M, in the experiment with OVCAR-3, with OVCAR-4 and with OVCAR-8 was > 100 µM (inactive) each time. The GI50 in the experiment on RXF 393 is > 100 µM (inactive); in the experiment with SK-MEL-28 it was > 100 µM (inactive); in the experiment on U-251 it was > 100 µM (inactive); in the experiment on UACC-62, 54.2 µM (inactive); in the experiment with UO-31 it was 47.1 µM (inactive).
